Data published in patent publication US20240158446A1, “CYCLIC COMPOUND HAVING SELECTIVE INHIBITORY ACTION ON KRAS OVER HRAS AND NRAS” (CHUGAI SEIYAKU KABUSHIKI KAISHA, priority 2021, published 2024).
Read-outs that look alike come from different tables or passages of the source. Where a SMILES comes first, the peptide text is derived from it. Bridges are numbered along the chain shown (N, C = ends). [ ]: non-standard residue; d: D form. The star is where a group is joined. hPhe(3-Cl-4-CF3) = N[C@@H](CCc1ccc(C(F)(F)F)c(Cl)c1)C(=O)O; NPrPhe(4-CF3) = CCCN[C@@H](Cc1ccc(C(F)(F)F)cc1)C(=O)O; NMeGly(cPent) = CN[C@H](C(=O)O)C1CCCC1; NMeD = CN[C@@H](CC(=O)O)C(=O)O; NMeL = CN[C@@H](CC(C)C)C(=O)O; NMeAbu = CC[C@H](NC)C(=O)O; Morpholide = C1CN(*)CCO1; Ac5c = NC1(C(=O)O)CCCC1; Ac4c = NC1(C(=O)O)CCC1; NEtG = CCNCC(=O)O; Sar = CNCC(=O)O

Legend:
[1] = target: GDP-bound NRAS wild-type protein (Homo sapiens, UniProt P01111); assay: Binding to NRAS by surface plasmon resonance (SPR), Single Cycle Kinetics
Chain of GDP-bound NRAS wild-type protein (P01111 whole entry): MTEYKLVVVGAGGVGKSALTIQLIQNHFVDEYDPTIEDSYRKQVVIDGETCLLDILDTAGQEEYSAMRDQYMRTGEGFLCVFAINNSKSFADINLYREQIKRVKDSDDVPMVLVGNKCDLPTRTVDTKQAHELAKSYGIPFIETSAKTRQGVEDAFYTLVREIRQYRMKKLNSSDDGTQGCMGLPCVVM

[2] = target: GDP-bound KRAS wild-type protein (Homo sapiens, UniProt P01116); assay: Binding to KRAS by surface plasmon resonance (SPR), Single Cycle Kinetics; conditions: GDP-bound KRAS wild-type protein, read-out: KRAS KD
Chain of GDP-bound KRAS wild-type protein (P01116 whole entry): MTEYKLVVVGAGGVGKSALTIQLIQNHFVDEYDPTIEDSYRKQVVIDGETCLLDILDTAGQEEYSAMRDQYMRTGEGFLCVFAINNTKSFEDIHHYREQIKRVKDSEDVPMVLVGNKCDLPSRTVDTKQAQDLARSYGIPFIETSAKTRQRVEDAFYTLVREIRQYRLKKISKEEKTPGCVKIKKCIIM

[3] = target: GDP-bound HRAS wild-type protein (Homo sapiens, UniProt P01112); assay: Binding to HRAS by surface plasmon resonance (SPR), Single Cycle Kinetics
Chain of GDP-bound HRAS wild-type protein (P01112 whole entry): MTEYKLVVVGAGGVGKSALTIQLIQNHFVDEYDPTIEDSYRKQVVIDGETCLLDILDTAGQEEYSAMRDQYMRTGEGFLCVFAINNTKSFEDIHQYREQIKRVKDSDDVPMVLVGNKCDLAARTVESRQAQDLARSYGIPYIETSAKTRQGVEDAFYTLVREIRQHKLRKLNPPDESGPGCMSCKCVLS

[4] = SPR, GDP-bound NRAS wild-type protein vs GDP-bound KRAS wild-type protein
[5] = SPR, GDP-bound HRAS wild-type protein vs GDP-bound KRAS wild-type protein
[6] = SPR Single Cycle Kinetics, 1:1 binding model

Row | Structure (SMILES) | Kd ([2]; SPR, Single Cycle Kinetics) [nM] | Kd [2, 6] [nM] | NRAS/KRAS (ratio of KD value for NRAS to KD value for KRAS) [1, 4] | HRAS/KRAS (ratio of KD value for HRAS to KD value for KRAS) [3, 5] | also measured
1 | CCCN1C(=O)CN(C)C(=O)CN(C)C(=O)[C@H]([C@@H](C)CC)NC(=O)[C@H](CC)N(C)C(=O)C[C@@H](C(=O)N2CCOCC2)N(C)C(=O)[C@H](C2CCCC2)N(C)C(=O)C2(CCCC2)NC(=O)[C@@H]2CCCN2C(=O)[C@H](CCc2ccc(C(F)(F)F)c(Cl)c2)NC(=O)CN(C)C(=O)[C@@H]1Cc1ccc(C(F)(F)F)cc1 [PP0190] ([NMeAbu]I[Sar][Sar][NPrPhe(4-CF3)][Sar][hPhe(3-Cl-4-CF3)]P[Ac5c][NMeGly(cPent)][NMeD]-Morpholide; lactam N-11) | – | 0.13 | B (a compound having 3 or more and less than 10 is denoted as B) | B (a compound having 3 or more and less than 10 is denoted as B) | –
2 | CCO[C@@H]1C[C@H]2C(=O)NC3(CCC3)C(=O)N(C)[C@@H](C3CCCC3)C(=O)N(C)[C@H](C(=O)N(C)CC)CC(=O)N(C)[C@@H](CC)C(=O)N[C@@H]([C@@H](C)CC)C(=O)N(C)CC(=O)N(C)[C@H]3C/C=C\CCN(C3=O)[C@@H](CC3CCCCC3)C(=O)N(C)CC(=O)N[C@@H](CCc3cc(F)c(C(F)(F)F)c(F)c3)C(=O)N2C1 [PP1552] | – | – | – | – | NRAS/KRAS (ratio of KD value for NRAS to KD value for KRAS) ([1]; SPR, GDP-bound NRAS wild-type protein vs GDP-bound KRAS wild-type protein, KD ratio class): A (a compound having 10 or more and less than 20 is denoted as A); Kd ([2]; SPR, Single Cycle Kinetics, 1:1 binding model): 0.19 nM; HRAS/KRAS (ratio of KD value for HRAS to KD value for KRAS) ([3]; SPR, GDP-bound HRAS wild-type protein vs GDP-bound KRAS wild-type protein, KD ratio class): A (a compound having 10 or more and less than 20 is denoted as A)
3 | CCCN1C(=O)CN(C)C(=O)CN(CC)C(=O)[C@H]([C@@H](C)CC)NC(=O)[C@H](CC(C)C)N(C)C(=O)C[C@@H](C(=O)N(C)C)N(C)C(=O)[C@H](C2CCCC2)N(C)C(=O)C2(CCC2)NC(=O)[C@@H]2CCCN2C(=O)[C@H](CCc2ccc(C(F)(F)F)c(Cl)c2)NC(=O)CN(C)C(=O)[C@@H]1Cc1ccc(C(F)(F)F)cc1 [PP0424] ([NMeL]I[NEtG][Sar][NPrPhe(4-CF3)][Sar][hPhe(3-Cl-4-CF3)]P[Ac4c][NMeGly(cPent)][NMeD]-NMe2; lactam N-11) | – | 0.17 | – | – | NRAS/KRAS (ratio of KD value with respect to NRAS to KD value with respect to KRAS) [1, 4]: B (a compound having 3 or more and less than 10 is denoted as B); HRAS/KRAS (ratio of KD value with respect to HRAS to KD value with respect to KRAS) [3, 5]: C (A compound having a KD ratio of 0.1 or more and less than 3 is denoted as C)

Further lines, with some results ahead:

Row | Kd ([2]; SPR, Single Cycle Kinetics) [nM] | Kd [2, 6] [nM] | Structure (SMILES) | NRAS/KRAS (ratio of KD value for NRAS to KD value for KRAS) [1, 4] | HRAS/KRAS (ratio of KD value for HRAS to KD value for KRAS) [3, 5] | also measured
4 | 4.1 | – | CCC[C@H]1C(=O)N[C@@H]([C@@H](C)CC)C(=O)N2CCC[C@H]2C(=O)N(C)[C@H]2C/C=C\CCN(C2=O)[C@@H](CC2CCC(F)(F)CC2)C(=O)N(C)CC(=O)N[C@@H](CCc2ccc(C(F)(F)F)c(OC)c2)C(=O)N2C[C@H](OCC)C[C@H]2C(=O)N(C)C2(CCC2)C(=O)N(C)[C@@H](C(CC)CC)C(=O)N(C)[C@H](C(=O)N(C)C)CC(=O)N1C [PP2353] | A (a compound having 10 or more and less than 20 is denoted as A) | A (a compound having 10 or more and less than 20 is denoted as A) | –
5 | 0.19 | – | CCC[C@H]1C(=O)N[C@@H](C2CCCC2)C(=O)N(C)CC(=O)N(C)[C@H]2C/C=C\CCN(C2=O)[C@@H](Cc2ccc(C)cc2)C(=O)N(C)CC(=O)N[C@@H](CCc2ccc(C(F)(F)F)c(OC)c2)C(=O)N2C[C@H](OCC)C[C@H]2C(=O)NC2(CC(C)(C)C2)C(=O)N(C)[C@@H](C2CCCC2)C(=O)N(C)[C@H](C(=O)N(C)C)CC(=O)N1C [PP2992] | AA (a compound having 20 or more is denoted as AA) | A (a compound having 10 or more and less than 20 is denoted as A) | –
6 | – | 0.12 | CCO[C@@H]1C[C@H]2C(=O)NC3(CC(C)(C)C3)C(=O)N(C)[C@@H](C3CCCC3)C(=O)N(C)[C@H](C(=O)N(C)CC)CC(=O)N(C)[C@H]3CCC/C=C/c4ccc(cc4)C[C@@H](C(=O)N(C)CC(=O)N[C@@H](CCc4ccc(Cl)c(Cl)c4)C(=O)N2C1)N1CC/C=C\C[C@@H](C1=O)N(C)C(=O)CN(C)C(=O)[C@H]([C@@H](C)CC)NC3=O [PP2577] | – | – | NRAS/KRAS (ratio of KD value with respect to GDP-bound NRAS wild-type protein to KD value with respect to KRAS) ([1]; SPR KD ratio NRAS/KRAS, class symbols): A (a compound having 10 or more and less than 20 is denoted as A); HRAS/KRAS (ratio of KD value with respect to GDP-bound HRAS wild-type protein to KD value with respect to KRAS) ([3]; SPR KD ratio HRAS/KRAS, class symbols): A (a compound having 10 or more and less than 20 is denoted as A)
